Test results from patent US12091426B2, “Bifunctional degraders of hematopoietic progenitor kinase and therapeutic uses thereof” (Nurix Therapeutics, Inc., priority 2021, dated 2024).

Biological target: T1, HPK1 (Homo sapiens, UniProt Q92918)
T1 construct: A HiBiT tag was introduced by CRISPR on the N terminus of HPK1 in Jurkat cells; host or cells: Jurkat cells (ATCC TIB-152), monoclonal line with CRISPR knock-in of HiBiT at the endogenous HPK1 locus
Experiment: HPK1 Cellular HiBit Degradation Assay
Type: cell-based
Conditions: HiBiT HPK1 Jurkat cells, 24 hrs; for DC50: concentration at which 50% of HPK1 was remaining, read-out: DC50 Category; for Dmax: Jurkat, read-out: Dmax Category
How it was run: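 Jurkat cells with CRISPR knock-in N-terminal HiBiT-HPK1 were treated with CTMs (11-point, 3.16-fold, 10 uM to 0.1 nM final) for 24 hrs at 37° C. HiBiT lytic luminescence, with parental Jurkat as background and DMSO as 100%, gave % HPK1 remaining; four-parameter fit yielded DC50 and Dmax (100 minus lowest % remaining).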

[1] = maximum degradation vs DMSO vehicle control

T1 sequence (Q92918 whole entry): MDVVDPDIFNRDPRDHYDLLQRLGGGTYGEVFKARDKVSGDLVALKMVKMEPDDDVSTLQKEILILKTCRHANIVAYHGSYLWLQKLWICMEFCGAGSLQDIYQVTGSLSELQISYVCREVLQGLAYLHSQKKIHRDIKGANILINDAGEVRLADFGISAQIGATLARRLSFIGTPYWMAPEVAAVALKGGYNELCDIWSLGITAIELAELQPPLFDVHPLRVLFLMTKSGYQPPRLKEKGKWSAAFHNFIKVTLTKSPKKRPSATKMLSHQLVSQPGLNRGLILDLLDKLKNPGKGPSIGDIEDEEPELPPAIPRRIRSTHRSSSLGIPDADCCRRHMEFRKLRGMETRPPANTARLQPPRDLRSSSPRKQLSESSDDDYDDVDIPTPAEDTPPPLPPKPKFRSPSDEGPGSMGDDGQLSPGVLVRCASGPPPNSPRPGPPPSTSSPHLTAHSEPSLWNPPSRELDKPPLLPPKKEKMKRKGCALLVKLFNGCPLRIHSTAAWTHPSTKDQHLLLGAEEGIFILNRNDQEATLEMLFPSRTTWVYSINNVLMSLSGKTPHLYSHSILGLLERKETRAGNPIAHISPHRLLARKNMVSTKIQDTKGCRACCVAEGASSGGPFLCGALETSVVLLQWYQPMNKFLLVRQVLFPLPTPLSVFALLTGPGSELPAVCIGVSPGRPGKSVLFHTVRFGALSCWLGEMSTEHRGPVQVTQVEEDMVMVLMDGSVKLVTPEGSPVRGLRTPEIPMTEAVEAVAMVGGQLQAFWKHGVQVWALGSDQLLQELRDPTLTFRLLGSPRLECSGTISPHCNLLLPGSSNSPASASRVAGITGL

Row | SMILES | DC50 | Dmax [1] | Dmax Category [1]
1 | CC(C)n1cnc2cc(-c3ccc4c(c3)N([C@H]3C[C@@H](N5CCCCC5)C3)C(=O)C43CCN(C(=O)C4(C)CCN(C(=O)[C@H]5CC[C@H](N(C)c6ccc(C7CCC(=O)NC7=O)cc6)CC5)CC4)CC3)nc(NC3CC3)c21 (mixture of isomers) [Example 150, (3RS)-3-(4-{methyl[(1R,4R)-4-[4-({6-[4-(cyclopropylamino)-3-isopropylimidazo[4,5-c]pyridin-6-yl]-2-oxo-1-[(1S,3S)-3-(piperidin-1-yl)cyclobutyl]spiro[indole-3,4′-piperidin]-1′-yl}carbonyl)-4-methylpiperidine-1-carbonyl]cyclohexyl]amino}phenyl)piperidine-2,6-dione] | 100 to 500 nM | 50 to 70% | –
2 | CC(C)n1cnc2cc(-c3ccc4c(c3)N(C3CC(N5CCCCC5)C3)C(=O)C43CCN(C(=O)C4(C)CCN(C(=O)C5(C)CCN(c6ccc(C7CCC(=O)NC7=O)cn6)CC5)CC4)CC3)nc(NC3CC3)c21 (racemic) [Example 151, (3RS)-3-(6-{4-[4-({6-[4-(cyclopropylamino)-3-isopropylimidazo[4,5-c]pyridin-6-yl]-2-oxo-1-[(1S,3S)-3-(piperidin-1-yl)cyclobutyl]spiro[indole-3,4′-piperidin]-1′-yl}carbonyl)-4-methylpiperidine-1-carbonyl]-4-methylpiperidin-1-yl}pyridin-3-yl)piperidine-2,6-dione] | < 100 nM | – | B (B: >70%-<85%)
3 | CC(C)n1cnc2cc(-c3ccc4c(c3)N([C@H]3C[C@@H](N5CCCCC5)C3)C(=O)C43CCN(C(=O)C4(C)CCN(C(=O)C5CCN(c6ccc(C7CCC(=O)NC7=O)cc6F)CC5)CC4)CC3)nc(NC3CC3)c21 (mixture of isomers) [Example 152, (3RS)-3-(4-{4-[4-({6-[4-(cyclopropylamino)-3-isopropylimidazo[4,5-c]pyridin-6-yl]-2-oxo-1-[(1S,3S)-3-(piperidin-1-yl)cyclobutyl]spiro[indole-3,4′-piperidin]-1′-yl}carbonyl)-4-methylpiperidine-1-carbonyl]piperidin-1-yl}-3-Fluorophenyl)piperidine-2,6-dione] | < 100 nM | 70 to 85% | –
4 | Cc1cc(C2CCC(=O)NC2=O)ccc1O[C@H]1CC[C@H](C(=O)N2CCC(C)(C(=O)N3CCC4(CC3)C(=O)N([C@H]3C[C@@H](N5CCCCC5)C3)c3cc(-c5cc6ncn(C(C)C)c6c(NC6CC6)n5)ccc34)CC2)CC1 (mixture of isomers) [Example 156, (3RS)-3-(3-methyl-4-{[(1R,4R)-4-[4-({6-[4-(cyclopropylamino)-3-isopropylimidazo[4,5-c]pyridin-6-yl]-2-oxo-1-[(1S,3S)-3-(piperidin-1-yl)cyclobutyl]spiro[indole-3,4′-piperidin]-1′-yl}carbonyl)-4-methylpiperidine-1-carbonyl]cyclohexyl]oxy}phenyl)piperidine-2,6-dione] | 100 to 500 nM | > 85% | –
5 | Cc1nc(N2CCC(C(=O)N3CCC(C)(C(=O)N4CCC5(CC4)C(=O)N([C@H]4C[C@@H](N6CCCCC6)C4)c4cc(-c6cc7ncn(C(C)C)c7c(Nc7ccccc7F)n6)ccc45)CC3)CC2)ccc1C1CCC(=O)NC1=O (mixture of isomers) [Example 157, (3RS)-3-[6-(4-{4-[(6-{4-[(2-fluorophenyl)amino]-3-(propan-2-yl)-3H-imidazo[4,5-c]pyridin-6-yl}-2-oxo-1-[(1S,3S)-3-(piperidin-1-yl)cyclobutyl]-1,2-dihydrospiro[indole-3,4′-piperidin]-1′-yl)carbonyl]-4-methylpiperidine-1-carbonyl}piperidin-1-yl)-2-Methylpyridin-3-yl]piperidine-2,6-dione] | 100 to 500 nM | 70 to 85% | –
6 | CC(C)n1cnc2cc(-c3ccc4c(c3)N([C@H]3C[C@@H](N5CCCCC5)C3)C(=O)C43CCN(S(=O)(=O)C4CCN(C(=O)C5CCN(c6ccc(C7CCC(=O)NC7=O)cn6)CC5)CC4)CC3)nc(NC3CC3)c21 (mixture of isomers) [Example 159, (3RS)-3-(6-{4-[4-({6-[4-(cyclopropylamino)-3-(propan-2-yl)-3H-imidazo[4,5-c]pyridin-6-yl]-2-oxo-1-[(1S,3S)-3-(piperidin-1-yl)cyclobutyl]-1,2-dihydrospiro[indole-3,4′-piperidin]-1′-yl}sulfonyl)piperidine-1-carbonyl]piperidin-1-yl}pyridin-3-yl)piperidine-2,6-dione] | < 100 nM | > 85% | –
7 | CC(C)n1cnc2cc(-c3ccc4c(c3)N([C@H]3C[C@@H](N5CCCCC5)C3)C(=O)C43CCN(C(=O)C4CCN(S(=O)(=O)C5CCN(c6ccc(C7CCC(=O)NC7=O)cn6)CC5)CC4)CC3)nc(NC3CC3)c21 (mixture of isomers) [Example 160, (3RS)-3-[6-(4-{[4-({6-[4-(cyclopropylamino)-3-(propan-2-yl)-3H-imidazo[4,5-c]pyridin-6-yl]-2-oxo-1-[(1S,3S)-3-(piperidin-1-yl)cyclobutyl]-1,2-dihydrospiro[indole-3,4′-piperidin]-1′-yl}carbonyl)piperidin-1-yl]sulfonyl}piperidin-1-yl)pyridin-3-yl]piperidine-2,6-dione] | < 100 nM | > 85% | –
8 | CC(C)n1cnc2cc(-c3ccc4c(c3)N([C@H]3C[C@@H](N5CCCCC5)C3)C(=O)C43CCN(C(=O)CC4CCN(C(=O)C5CCN(c6ccc(C7CCC(=O)NC7=O)cn6)CC5)CC4)CC3)nc(NC3CC3)c21 (mixture of isomers) [Example 162, (3RS)-3-(6-{4-[4-(2-{6-[4-(cyclopropylamino)-3-(propan-2-yl)-3H-imidazo[4,5-c]pyridin-6-yl]-2-oxo-1-[(1S,3S)-3-(piperidin-1-yl)cyclobutyl]-1,2-dihydrospiro[indole-3,4′-piperidin]-1′-yl}-2-oxoethyl)piperidine-1-carbonyl]piperidin-1-yl}pyridin-3-yl)piperidine-2,6-dione] | < 100 nM | 70 to 85% | –
9 | CC(C)n1cnc2cc(-c3ccc4c(c3)N([C@H]3C[C@@H](N5CCCCC5)C3)C(=O)C43CCN(C(=O)[C@]4(C)CCN(C(=O)C5CCN(c6ccc(C7CCC(=O)NC7=O)c(F)c6)CC5)C4)CC3)nc(NC3CC3)c21 (mixture of isomers) [Example 185, (3RS)-3-(4-{4-[(3R)-3-({6-[4-(cyclopropylamino)-3-(propan-2-yl)-3H-imidazo[4,5-c]pyridin-6-yl]-2-oxo-1-[(1S,3S)-3-(piperidin-1-yl)cyclobutyl]-1,2-dihydrospiro[indole-3,4′-piperidin]-1′-yl}carbonyl)-3-methylpyrrolidine-1-carbonyl]piperidin-1-yl}-2-fluorophenyl)piperidine-2,6-dione] | 100 to 500 nM | 70 to 85% | –
10 | CC(C)n1cnc2cc(-c3ccc4c(c3)N([C@H]3C[C@@H](N5CCCCC5)C3)C(=O)C43CCN(C(=O)[C@]4(C)CCN(C(=O)C5CCN(c6ccc(C7CCC(=O)NC7=O)cn6)CC5)C4)CC3)nc(NC3CC3)c21 (mixture of isomers) [Example 186, (3RS)-3-(6-{4-[(3R)-3-({6-[4-(cyclopropylamino)-3-(propan-2-yl)-3H-imidazo[4,5-c]pyridin-6-yl]-2-oxo-1-[(1S,3S)-3-(piperidin-1-yl)cyclobutyl]-1,2-dihydrospiro[indole-3,4′-piperidin]-1′-yl}carbonyl)-3-methylpyrrolidine-1-carbonyl]piperidin-1-yl}pyridin-3-yl)piperidine-2,6-dione] | 100 to 500 nM | 70 to 85% | –
11 | CC(C(=O)N1CCC2(CC1)C(=O)N([C@H]1C[C@@H](N3CCCCC3)C1)c1cc(-c3cc4ncn(C(C)C)c4c(NC4CC4)n3)ccc12)C1CCN(C(=O)C2CCN(c3ccc(C4CCC(=O)NC4=O)cn3)CC2)CC1 (mixture of isomers) [Example 187, (3RS)-3-(6-{4-[4-(1-{6-[4-(cyclopropylamino)-3-(propan-2-yl)-3H-imidazo[4,5-c]pyridin-6-yl]-2-oxo-1-[(1S,3S)-3-(piperidin-1-yl)cyclobutyl]-1,2-dihydrospiro[indole-3,4′-piperidin]-1′-yl}-1-oxopropan-2-yl)piperidine-1-carbonyl]piperidin-1-yl}pyridin-3-yl)piperidine-2,6-dione] | < 100 nM | 70 to 85% | –
12 | CC(C)n1cnc2cc(-c3ccc4c(c3)N([C@H]3C[C@@H](N5CCCCC5)C3)C(=O)C43CCN(C(=O)C(C)(C)N4CCN(C(=O)C5CCN(c6ccc(C7CCC(=O)NC7=O)cn6)CC5)CC4)CC3)nc(NC3CC3)c21 (mixture of isomers) [Example 188, (3RS)-3-(6-{4-[4-(1-{6-[4-(cyclopropylamino)-3-isopropylimidazo[4,5-c]pyridin-6-yl]-2-oxo-1-[(1S,3S)-3-(piperidin-1-yl)cyclobutyl]spiro[indole-3,4′-piperidin]-1′-yl}-2-methyl-1-oxopropan-2-yl)piperazine-1-carbonyl]piperidin-1-yl}pyridin-3-yl)piperidine-2,6-dione] | < 100 nM | 70 to 85% | –
13 | Cc1cc(N2CCC(C(=O)N3CCC(C)(C(=O)N4CCC5(CC4)C(=O)N([C@H]4C[C@@H](N6CCCCC6)C4)c4cc(-c6cc7ncn(C(C)C)c7c(NC7CC7)n6)ccc45)CC3)CC2)ncc1C1CCC(=O)NC1=O (mixture of isomers) [Example 189, (3RS)-3-(6-{4-[4-({6-[4-(cyclopropylamino)-3-isopropylimidazo[4,5-c]pyridin-6-yl]-2-oxo-1-[(1S,3S)-3-(piperidin-1-yl)cyclobutyl]spiro[indole-3,4′-piperidin]-1′-yl}carbonyl)-4-methylpiperidine-1-carbonyl]piperidin-1-yl}-4-Methylpyridin-3-yl)piperidine-2,6-dione] | < 100 nM | 70 to 85% | –
